Results published in patent US20170232031A1, “Inhibitors of Zika Virus” (Riboscience LLC, priority 2016, published 2017).
Entries after “also recorded” stand apart in the source; their conditions may differ. Read-outs that look alike come from different tables or passages of the source.

Experiments:
[1] = molecular target: T1, mitochondrial DNA polymerase pol γ (Homo sapiens, UniProt P54098); assay: Inhibition of mitochondrial DNA polymerase pol γ; format: biochemical; details: comparison nucleoside triphosphates; read-out: DNA pol γ mean IC50
T1 sequence (P54098 1-1239): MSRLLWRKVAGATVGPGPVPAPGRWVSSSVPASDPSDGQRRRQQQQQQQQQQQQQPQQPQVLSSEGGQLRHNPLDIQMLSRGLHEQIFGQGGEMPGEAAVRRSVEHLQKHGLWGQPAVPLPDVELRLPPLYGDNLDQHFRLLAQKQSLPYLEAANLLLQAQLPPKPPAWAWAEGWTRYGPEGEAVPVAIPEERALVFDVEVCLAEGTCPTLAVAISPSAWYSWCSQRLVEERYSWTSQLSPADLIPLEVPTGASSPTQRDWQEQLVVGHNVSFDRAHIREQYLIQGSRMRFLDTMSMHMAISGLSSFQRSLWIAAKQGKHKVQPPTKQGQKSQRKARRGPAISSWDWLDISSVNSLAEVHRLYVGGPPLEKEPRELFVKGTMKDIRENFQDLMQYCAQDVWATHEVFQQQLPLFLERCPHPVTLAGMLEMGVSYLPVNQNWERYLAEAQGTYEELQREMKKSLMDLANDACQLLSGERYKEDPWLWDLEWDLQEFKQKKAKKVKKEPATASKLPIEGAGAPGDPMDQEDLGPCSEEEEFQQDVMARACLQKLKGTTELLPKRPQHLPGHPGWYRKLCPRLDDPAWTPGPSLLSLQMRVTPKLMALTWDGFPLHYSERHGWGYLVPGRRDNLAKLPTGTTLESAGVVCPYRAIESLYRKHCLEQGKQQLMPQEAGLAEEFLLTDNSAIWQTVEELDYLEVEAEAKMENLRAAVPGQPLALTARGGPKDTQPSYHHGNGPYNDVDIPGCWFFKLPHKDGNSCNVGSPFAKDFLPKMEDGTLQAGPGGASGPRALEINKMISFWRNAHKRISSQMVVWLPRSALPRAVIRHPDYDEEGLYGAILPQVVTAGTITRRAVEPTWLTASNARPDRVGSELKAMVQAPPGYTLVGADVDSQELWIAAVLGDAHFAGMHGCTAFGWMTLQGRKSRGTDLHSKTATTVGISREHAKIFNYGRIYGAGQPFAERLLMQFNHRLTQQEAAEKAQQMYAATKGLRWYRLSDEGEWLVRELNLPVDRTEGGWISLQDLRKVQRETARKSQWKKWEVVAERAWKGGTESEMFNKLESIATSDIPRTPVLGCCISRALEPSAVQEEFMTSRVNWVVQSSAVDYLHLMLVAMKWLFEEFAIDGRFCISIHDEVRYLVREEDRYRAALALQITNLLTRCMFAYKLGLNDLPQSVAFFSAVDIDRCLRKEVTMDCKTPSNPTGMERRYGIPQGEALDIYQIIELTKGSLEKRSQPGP

[2] = Cytotoxicity (CC50) alongside HCV GT1b replicon assay; details: HCV GT1b (Con1) replicon cells
[3] = human, in vivo; cited from earlier work
[4] = system: Chikungunya replicon (CHIKV strain LR2006 OPY-1, GenBank EU224270); assay: Chikungunya replicon antiviral activity; format: cell-based; details: Chikungunya virus
Excerpt: (§1) FIG. 3. Antiviral activity of I-3 against ZIKV and CHIKV replication and cell viability determined in Huh-7 cell derived CHIKV replicon cells by intracellular ATP quantification (CellTiter-Glo).
(§2) Antiviral activity of I-3 (prodrug of 4AU) against ZIKV and CHIKV replication and cell viability determined in Huh-7 cell derived CHIKV replicon cells by intracellular ATP quantification (CellTiter-Glo).

HepG2 cells = assay: Mitochondrial toxicity in HepG2 cells (COX-I / SDH-A ratio); details: up to 11-day incubation
Excerpt: Mean values shown as individual data points; standard deviations as error bars (FIG. 4).

[5] = 13 week, GLP; cited from earlier work
HCV replication = details: humans; cited from earlier work
[6] = 13 week, GLP; cited from earlier work; remark: listed apart in the source
[7] = format: in vitro ADME, human
Description: The formation of 4AUTP triphosphate is determined in human cells (Huh-7 cells, PBMC), and representative mouse, rat, dog and cynomolgus monkey cells. The intracellular triphosphate concentration is determined using LC-MS/MS. In human cells, the time and concentration dependent formation of 4AUTP triphosphate is determined, as well as the half-life after removal of all extracellular prodrug by exchange of cell culture medium. Analysis of intracellular nucleoside phosphates is conducted using well-established methods.

in vitro = format: cell-based; details: human; Huh-7 cell derived CHIKV replicon cells
Excerpt: as §1, §2

[8] = system: HCV replicon of genotype 1b (Con1); assay: HCV replicon genotype 1b antiviral activity; format: cell-based; details: Hepatitis C virus; replicon genotype 1b (Con1); read-out: HCV GT1b EC50
ZIK-V-RLuc = assay: Renilla Luciferase (Rluc) assay, % infection of ZIK-V-RLuc; format: cell-based; details: Zika virus, 72 h, read-out: IC50 Zika
Description: FIG. 1. Graph of % infection of ZIK-V-RLuc at 72 h.p.i. vs. IC50 concentration (μM) of compound I-36.
FIG. 2. Graph of % infection of ZIK-V-RLuc at 72 h.p.i. vs. IC50 concentration (μM) of compound I-37.
Single Epimers I-36 and I-37, of I-1 were tested in the Rluc assay at 72 h.p.i. for % inhibition vs. concentration of compound (FIGS. 1-2): […]

[9] = system: ZIKV strain MR766 (Genbank LC002520); assay: Antiviral activity against ZIKV replication in cells; format: cell-based, Zika virus
Description: (§3) The human hepatoma cell line Huh-7, are cultured in DMEM without phenol-red (Cellgro Mediatech, Cat #10-013-CV containing 4.5 g/l glucose, L-glutamine & sodium pyruvate). The medium is further supplemented with 10% (v/v) FBS (ATLAS Cat # F-0500-A, lot#850114A) and 1% (vlv) penicillin/streptomycin (Cellgro Mediatech #30-022-CI). Cells are maintained at 37° C. in a humidified 5% CO2 atmosphere. Zika virus representative strain titers are measured on BHK-21 cells, using a standard plaque assay procedure. For the determination of EC50 of nucleoside in the antiviral assay, Huh-7 cells are plated in white 96-well plates in MEM media supplemented with 10% FBS and 1% penicillin/streptomycin. After incubation for 24 h, the cells are infected at a multiplicity of infection (MOI) of 0.5 for 2 h at 37° C. Ten three-fold dilutions of compounds are prepared in the same media supplemented with 1% DMSO. After the 2 h adsorption phase, the virus is aspirated off and diluted compound is added to four wells each. Huh-7 cells are plated as described above and exposed to the same concentration range of compounds. Untreated cells are carried along as a control. After a 3-day incubation at 37° C., the cell viability is determined using Cell-titer Glo™ reagent (Promega, Madison, Wis.) that is added to each well and incubated for 5 min. Plates are analyzed using a Thermo Luminoskan plate reader (Waltham, Mass.).

human RNA polymerase II = molecular target: T2, human RNA polymerase II (Homo sapiens, UniProt P24928+P30876); assay: RNA polymerase II specific reporter gene assay in HeLa cells; format: cell-based; details: 10 or 100 μM (highest soluble concentrations)
T2 construct: endogenous in cells; host or cells: HeLa

[10] = Cell viability (CC50) alongside ZIKV antiviral assay, Cell-titer Glo; format: cell-based; details: human, Huh-7 cells
Description: as §3

human RNA polymerase III = molecular target: T3, human RNA polymerase III (Homo sapiens, UniProt O14802+Q9NW08); assay: RNA polymerase III specific reporter gene assay in HeLa cells; format: cell-based; details: 10 or 100 μM (highest soluble concentrations)
T3 construct: endogenous in cells; host or cells: HeLa

human RNA polymerase I = molecular target: T4, human RNA polymerase I (Homo sapiens, UniProt O95602+Q9H9Y6); assay: RNA polymerase I specific reporter gene assay in HeLa cells; format: cell-based; details: 10 or 100 μM (highest soluble concentrations)
T4 construct: endogenous in cells; host or cells: HeLa

Compound `Cc1cn([C@H]2C[C@H](N=[N+]=[N-])[C@@H](COP(=O)(O)OP(=O)(O)OP(=O)(O)O)O2)c(=O)[nH]c1=O` [AZT triphosphate] has an IC50 [1] of 2.47 µM.
In the case of `[N-]=[N+]=N[C@]1(CO)O[C@@H](n2ccc(=O)[nH]c2=O)[C@H](O)[C@@H]1O` [Compound 4AU, 4′-azidouridine], the CC50 [2] is given as over 1000 µM, the “safety in Phase 1 clinical study” value [3] is given as “safety of 4AU has already been demonstrated” and the EC50 [4] is given as over 100 µM. The mitochondrial toxicity (HepG2 cells) was “No mitochondrial toxicity; also recorded: lack of mitochondrial toxicity”, the “safety in chronic toxicity study, rats” value [5] was “safety of 4AU has already been demonstrated” and the “antiviral activity against HCV replication in Phase 1 study” value (HCV replication) was “significant antiviral activity”. The “safety in chronic toxicity study, monkeys” value [6] was “safety of 4AU has already been demonstrated”, the “conversion to 4AU-triphosphate (4AUTP)” value [7] was “not efficiently converted” and the CC50 (in vitro) was over 1000 µM. It also gave an EC50 [8] of 217 µM.
Work on `C[C@H](N[P@](=O)(OC[C@@]1(N=[N+]=[N-])O[C@@H](n2ccc(=O)[nH]c2=O)[C@H](O)[C@@H]1O)Oc1cccc2ccccc12)C(=O)OCc1ccccc1` [Compound I-37, benzyl ((S)-(((2R,3S,4R,5R)-2-azido-5-(2,4-dioxo-3,4-dihydropyrimidin-1(2H)-yl)-3,4-dihydroxytetrahydrofuran-2-yl)methoxy)(naphthalen-1-yloxy)phosphoryl)-L-alaninate] yielded an IC50 (ZIK-V-RLuc) of 1.65 µM.
For `CCOC(=O)[C@H](C)NP(=O)(OC[C@@]1(N=[N+]=[N-])O[C@@H](n2ccc(=O)[nH]c2=O)[C@H](O)[C@@H]1O)Oc1cccc2ccccc12` (stereo partly drawn) [Compound I-3, ethyl ((((2R,3S,4R,5R)-2-azido-5-(2,4-dioxo-3,4-dihydropyrimidin-1(2H)-yl)-3,4-dihydroxytetrahydrofuran-2-yl)methoxy)(naphthalen-1-yloxy)phosphoryl)-L-alaninate], the CC50 [2] was over 100 µM, the EC50 ([9]; Zika virus, ZIKV strain MR766, human Huh-7 or mouse MEF cells) was 0.48 µM and the “antiviral inhibition potency (EC50), in words” value ([9]; summary statement) was “submicromolar”. For the same compound, the “inhibition of human RNA polymerase II activity (reporter gene)” value (human RNA polymerase II) was “did not inhibit”, the CC50 at 3 day ([10]; cytotoxicity column of the ZIKV assay, read-out: ZIKV CC50) was over 100 µM and the CC50 at 3 day ([10]; summary statement, cytotoxicity in cell culture, read-out: Huh-7 cell CC50) was over 100 µM. For the same compound, the EC50 [4] was 4.1 µM, the “inhibition of human RNA polymerase III activity (reporter gene)” value (human RNA polymerase III) was “did not inhibit” and the “inhibition of human RNA polymerase I activity (reporter gene)” value (human RNA polymerase I) was “did not inhibit”. The CC50 (in vitro) was over 100 µM and the EC50 [8] was 0.4 µM.
`C[C@H](N[P@@](=O)(OC[C@@]1(N=[N+]=[N-])O[C@@H](n2ccc(=O)[nH]c2=O)[C@H](O)[C@@H]1O)Oc1cccc2ccccc12)C(=O)OCc1ccccc1` [Compound I-36, benzyl ((R)-(((2R,3S,4R,5R)-2-azido-5-(2,4-dioxo-3,4-dihydropyrimidin-1(2H)-yl)-3,4-dihydroxytetrahydrofuran-2-yl)methoxy)(naphthalen-1-yloxy)phosphoryl)-L-alaninate] gave an IC50 (ZIK-V-RLuc) of 1.1 µM.
For `Nc1ccn([C@@H]2CS[C@H](COP(=O)(O)OP(=O)(O)OP(=O)(O)O)O2)c(=O)n1` [lamivudine triphosphate], the IC50 [1] was 149 µM.
